# Laboratory results: patent publication US11338007B2, “Combination formulation of three antiviral compounds” (priority 2016, dated 2022)
# Assays:
# [1] = Stability of clinical film-coated tablets Batches A-D (Tables 14, 15A-15C); assay type: physicochemical; conditions: for LS (%): tablets Batch C, 1 g desiccant
# Protocol: FIGS. 10-12 depict additional dissolution profiles for the sofosbuvir/velpatasvir SSD/voxilaprevir SSD tablets having the formulation described in Table 13 and which were used in phase 1, 2, and 3 clinical studies, where the dissolution testing was conducted at pH 5.0 acetate buffer containing 2.0% w/v polysorbate 80. Four batches of the sofosbuvir/velpatasvir SSD/voxilaprevir SSD tablets were tested, with Batch A manufactured at 100 kg and Batches B, C and D manufactured at 145 kg. All other aspects of the formulation and manufacturing process were otherwise equivalent. The four batches were packed in the same commercial configuration: 28 count, 100 mL HPDE bottle with 1 g silica gel desiccant canister and a polyester fiber coil. […] Moreover, for Batch A, the amount dissolved at 30 min remained between 98 and 100% for sofosbuvir, between 90 and 92% for velpatasvir SSD, and between 89 and 93% for voxilaprevir SSD. […] For Batch D, the amount dissolved at 30 min remained at 100% for sofosbuvir, between 90 and 91% for velpatasvir SSD, and between 89 and 91% for voxilaprevir SSD. Release of velpatasvir SSD and voxilaprevir SSD from the sofosbuvir/velpatasvir SSD/voxilaprevir SSD tablets associated with all four Batches was complete after 60 minutes.
# Stability data associated with the sofosbuvir/velpatasvir SSD/voxilaprevir SSD film-coated tablets (Batch A) are presented in Table 14. […] No upward trend in the content of degradation products was observed over the time period studied. The water content for packaged tablets remained between 1.9 and 2.3% through 6 months storage at 40° C./75% RH, 30° C./75% RH, and 25° C./60% RH. As summarized in Table 14, the packaged tablets (Batch A) were physically stable with no change in XRPD patterns after 6 months storage.
# Stability data associated with the sofosbuvir/velpatasvir SSD/voxilaprevir SSD film-coated tablets (Batches B-D) are presented in Tables 15A-15C, respectively. […] No upward trend in the content of degradation products was observed over the time period studied. The water content for packaged tablets remained between 1.8 and 2.3% through 6 months storage at 40° C./75% RH, 30° C./75% RH, and 25° C./60% RH. The packaged tablets were physically stable with no change in XRPD patterns after 6 months storage.
# For Batch D, the packaged tablets had acceptable chemical stability for up to 1 month under all conditions with total impurities/degradation products of sofosbuvir remaining at 0.0%, velpatasvir SSD remaining between 0.7 and 0.8%, and voxilaprevir SSD remaining at 0.0%. No upward trend in the content of degradation products was observed over the time period studied. The water content for packaged tablets remained between 1.9 and 2.3% through 1 month storage at 40° C./75% RH, 30° C./75% RH, and 25° C./60% RH.
# [2] = Impact of desiccant and packaging configuration on tablet stability (Tables 24A-24C); assay type: physicochemical; conditions: for I/D (%) / LS (%): tablets;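 as to all read-outs here: stability of tablets stored with different desiccant amounts and packaging configurations, evaluating physical and chemical stability plus dissolution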
# [3] = test system: HCV RNA; experiment: Emax PK/PD modeling of sofosbuvir dose (HCV RNA change from baseline); assay type: in vivo, human; conditions: mean major metabolite AUCtau for 400 mg dose
# Protocol: The sofosbuvir dose selected for the tablet formulation is 400 mg once daily. Support for the 400 mg sofosbuvir dose can be derived from Emax PK/PD modeling with early virological and human exposure data which also supports the selection of a 400 mg sofosbuvir dose over others tested.
# The mean sofosbuvir major metabolite AUCtau for the 400 mg sofosbuvir dose is associated with approximately 77% of the maximal HCV RNA change from baseline achievable as determined by this model, a value which is on the cusp of the plateau of the exposure-response sigmoidal curve. In a sigmoidal Emax model, there is a relatively linear exposure-response relationship in the 20 to 80% maximal effect range. Therefore, given that sofosbuvir exposure with 200 mg tablets appears dose-proportional with single doses up to 1200 mg, doses below 400 mg are expected to yield considerable reductions in the magnitude of HCV RNA change from baseline.
# [4] = Batch A, 25° C./60% RH, 3 months
# [5] = Batch A, 25° C./60% RH, 6 months
# [6] = Batch A, 30° C./75% RH, 3 months
# [7] = Batch A, 30° C./75% RH, 6 months
# [8] = Batch A, 40° C./75% RH, 1 month
# [9] = Batch A, 40° C./75% RH, 3 months
# [10] = Batch A, 40° C./75% RH, 6 months
# [11] = closed, 1 g desiccant, 25° C./60% RH, 12 weeks
# [12] = closed, 1 g desiccant, 25° C./60% RH, 24 weeks
# [13] = closed, 1 g desiccant, 40° C./75% RH, 4 weeks
# [14] = closed, 1 g desiccant, 40° C./75% RH, 12 weeks
# [15] = closed, 1 g desiccant, 40° C./75% RH, 24 weeks
# [16] = closed, 3 g desiccant, 25° C./60% RH, 12 weeks
# [17] = closed, 3 g desiccant, 25° C./60% RH, 24 weeks
# [18] = closed, 3 g desiccant, 40° C./75% RH, 4 weeks
# [19] = closed, 3 g desiccant, 40° C./75% RH, 12 weeks
# [20] = closed, 3 g desiccant, 40° C./75% RH, 24 weeks
# [21] = closed, no desiccant, 25° C./60% RH, 12 weeks
# [22] = closed, no desiccant, 25° C./60% RH, 24 weeks
# [23] = closed, no desiccant, 40° C./75% RH, 4 weeks
# [24] = closed, no desiccant, 40° C./75% RH, 12 weeks
# [25] = closed, no desiccant, 40° C./75% RH, 24 weeks
# [26] = desiccant study, Initial, time 0
smiles,measurement,setting,value
"CC(C)OC(=O)C(C)N[P@](=O)(OC[C@H]1O[C@@H](n2ccc(=O)[nH]c2=O)[C@](C)(F)[C@@H]1O)Oc1ccccc1 (stereo in doubt) [sofosbuvir, (S)-isopropyl 2-(((S)-(((2R,3R,4R,5R)-5-(2,4-dioxo-3,4-dihydropyrimidin-1(2H)-yl)-4-fluoro-3-hydroxy-4-methyltetrahydrofuran-2-yl)methoxy)(phenoxy)phosphoryl)amino)propanoate]",LS,[1]; [4],102.7%
same,Total Imp./Deg.,[1]; [4],0.0%
same,LS,[1]; [5],99.0%
same,Total Imp./Deg.,[1]; [5],0.0%
same,LS,[1]; [6],100.3%
same,Total Imp./Deg.,[1]; [6],0.0%
same,LS,[1]; [7],98.1%
same,Total Imp./Deg.,[1]; [7],0.0%
same,LS,[1]; [8],99.7%
same,Total Imp./Deg.,[1]; [8],0.0%
same,LS,[1]; [9],101.7%
same,Total Imp./Deg.,[1]; [9],0.0%
same,LS,[1]; [10],98.7%
same,Total Imp./Deg.,[1]; [10],0.0%
same,LS,"[1]; Batch A, Initial",99.0%
same,Total Imp./Deg.,"[1]; Batch A, Initial",0.0%
same,total impurities/degradation products,"[1]; Batch A, up to 6 months under all conditions",0.0%
same,LS,"[1]; Batch B, 25° C./60% RH, 3 months",100.7%
same,LS,"[1]; Batch B, 25° C./60% RH, 6 months",100.1%
same,LS,"[1]; Batch B, 30° C./75% RH, 3 months",98.4%
same,LS,"[1]; Batch B, 30° C./75% RH, 6 months",98.8%
same,LS,"[1]; Batch B, 40° C./75% RH, 1 month",101.7%
same,LS,"[1]; Batch B, 40° C./75% RH, 3 months",99.8%
same,LS,"[1]; Batch B, 40° C./75% RH, 6 months",99.0%
same,LS,"[1]; Batch B, Initial",100.0%
same,Total Imp./Deg.,"[1]; Batch B, Initial",0.0%
same,LS,"[1]; Batch D, 40° C./75% RH, 1 month",99.7%
same,LS,"[1]; Batch D, Initial",99.8%
same,total impurities/degradation products,"[1]; Batch D, up to 1 month under all conditions",0.0%
same,total impurities/degradation products,"[1]; Batches B and C, up to 6 months under all conditions",0.0%
same,LS (%),"[1]; 25° C./60% RH, 3 months",98.9%
same,LS (%),"[1]; 25° C./60% RH, 6 months",98.8%
same,LS (%),"[1]; 30° C./75% RH, 3 months",100.1%
same,LS (%),"[1]; 30° C./75% RH, 6 months",99.1%
same,LS (%),"[1]; 40° C./75% RH, 1 month",101.1%
same,LS (%),"[1]; 40° C./75% RH, 3 months",99.4%
same,LS (%),"[1]; 40° C./75% RH, 6 months",98.9%
same,LS (%),"[1]; Initial, time 0",99.1%
same,total impurities/degradation products,"[2]; desiccant study (0, 1, 3 g), all conditions, 6 months",0.0%
same,I/D (%),[2]; [11],0.0%
same,LS (%),[2]; [11],99.3%
same,I/D (%),[2]; [12],0.0%
same,LS (%),[2]; [12],100.4%
same,I/D (%),[2]; [13],0.0%
same,LS (%),[2]; [13],100.0%
same,I/D (%),[2]; [14],0.0%
same,LS (%),[2]; [14],99.4%
same,I/D (%),[2]; [15],0.0%
same,LS (%),[2]; [15],101.7%
same,I/D (%),[2]; [16],0.0%
same,LS (%),[2]; [16],100.3%
same,I/D (%),[2]; [17],0.0%
same,LS (%),[2]; [17],101.6%
same,I/D (%),[2]; [18],0.0%
same,LS (%),[2]; [18],100.0%
same,I/D (%),[2]; [19],0.0%
same,LS (%),[2]; [19],99.9%
same,I/D (%),[2]; [20],0.0%
same,LS (%),[2]; [20],102.3%
same,I/D (%),[2]; [21],0.0%
same,LS (%),[2]; [21],99.3%
same,I/D (%),[2]; [22],0.0%
same,LS (%),[2]; [22],100.2%
same,I/D (%),[2]; [23],0.0%
same,LS (%),[2]; [23],101.4%
same,I/D (%),[2]; [24],0.0%
same,LS (%),[2]; [24],100.3%
same,I/D (%),[2]; [25],0.0%
same,LS (%),[2]; [25],100.4%
same,I/D (%),[2]; [26],0.0%
same,LS (%),[2]; [26],102.1%
same,maximal HCV RNA change from baseline achievable (Emax model),[3],approximately 77%
